Measured values taken from the supplement of paper PMC10307832.

Experiments:
Experiment in all cases: relative viability (nuclei count vs DMSO), 5 days (fraction); higher = more cells survive
NCI-H358 = tested on: NCI-H358
In short: (§1)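 Relative viability equals treated-well nuclei counts divided by vehicle-well nuclei counts. Counts came from 4× images of lung cancer cell lines grown in 1536-well plates for 5 days after pin-tool dosing on the day after seeding. Dosing used one drug alone or a fixed anchor-drug dose plus five library-drug doses (not always all listed) in √10 steps, and values are medians of duplicate plates.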

LC-2-ad = tested on: LC-2-ad
In short: as §1

NCI-H460 = tested on: NCI-H460
In short: as §1

HCC-78 = tested on: HCC-78
In short: as §1

NCI-H1975 = tested on: NCI-H1975
In short: as §1

SW 1573 = tested on: SW 1573
In short: as §1

LOU-NH91 = tested on: LOU-NH91
In short: as §1

NCI-H1915 = tested on: NCI-H1915
In short: as §1

A-427 = tested on: A-427
In short: as §1

NCI-H647 = tested on: NCI-H647
In short: as §1

SK-LU-1 = tested on: SK-LU-1
In short: as §1

HOP-62 = tested on: HOP-62
In short: as §1

NCI-H1755 = tested on: NCI-H1755
In short: as §1

HCC-15 = tested on: HCC-15
In short: as §1

NCI-H2126 = tested on: NCI-H2126
In short: as §1

PC-3 [JPC-3] = tested on: PC-3 [JPC-3]
In short: as §1

NCI-H2228 = tested on: NCI-H2228
In short: as §1

NCI-H2347 = tested on: NCI-H2347
In short: as §1

RERF-LC-KJ = tested on: RERF-LC-KJ
In short: as §1

NCI-H1734 = tested on: NCI-H1734
In short: as §1

LXF-289 = tested on: LXF-289
In short: as §1

NCI-H1792 = tested on: NCI-H1792
In short: as §1

CC(C)Oc1cc(Nc2nc(N[C@@H](C)c3ccc(F)cn3)ncc2Cl)n[nH]1 [AZ23] + Cc1nc(NC(=O)N2CCC[C@H]2C(N)=O)sc1-c1ccnc(C(C)(C)C(F)(F)F)c1 [Alpelisib] (partner 2 µM)
relative viability (NCI-H358; first compound 0.01 µM): 0.937
relative viability (NCI-H358; first compound 0.03162 µM): 0.855
relative viability (NCI-H358; first compound 0.3162 µM): 0.928
relative viability (LC-2-ad; first compound 0.01 µM): 1.01
relative viability (LC-2-ad; first compound 0.03162 µM): 0.895
relative viability (LC-2-ad; first compound 0.3162 µM): 0.892
relative viability (NCI-H460; first compound 0.01 µM): 0.429
relative viability (NCI-H460; first compound 0.03162 µM): 0.598
relative viability (NCI-H460; first compound 0.3162 µM): 0.48
relative viability (HCC-78; first compound 0.01 µM): 0.348
relative viability (HCC-78; first compound 0.03162 µM): 0.286
relative viability (HCC-78; first compound 0.3162 µM): 0.306
relative viability (NCI-H1975; first compound 0.01 µM): 0.696
relative viability (NCI-H1975; first compound 0.03162 µM): 0.718
relative viability (NCI-H1975; first compound 0.3162 µM): 0.705
relative viability (SW 1573; first compound 0.01 µM): 0.852
relative viability (SW 1573; first compound 0.03162 µM): 0.845
relative viability (SW 1573; first compound 0.3162 µM): 0.712
relative viability (LOU-NH91; first compound 0.01 µM): 0.676
relative viability (LOU-NH91; first compound 0.03162 µM): 0.775
relative viability (LOU-NH91; first compound 0.3162 µM): 0.699
relative viability (NCI-H1915; first compound 0.01 µM): 1.17
relative viability (NCI-H1915; first compound 0.03162 µM): 1.09
relative viability (NCI-H1915; first compound 0.3162 µM): 1.04
relative viability (A-427; first compound 0.01 µM): 1.13
relative viability (A-427; first compound 0.03162 µM): 1.1
relative viability (A-427; first compound 0.3162 µM): 1.08
relative viability (NCI-H647; first compound 0.01 µM): 1.63
relative viability (NCI-H647; first compound 0.03162 µM): 1.37
relative viability (NCI-H647; first compound 0.3162 µM): 1.17
relative viability (SK-LU-1; first compound 0.01 µM): 1.28
relative viability (SK-LU-1; first compound 0.03162 µM): 1.09
relative viability (SK-LU-1; first compound 0.3162 µM): 0.973
relative viability (HOP-62; first compound 0.01 µM): 1.08
relative viability (HOP-62; first compound 0.03162 µM): 0.973
relative viability (HOP-62; first compound 0.3162 µM): 0.97
relative viability (NCI-H1755; first compound 0.01 µM): 1.12
relative viability (NCI-H1755; first compound 0.03162 µM): 1.05
relative viability (NCI-H1755; first compound 0.3162 µM): 1.09
relative viability (HCC-15; first compound 0.01 µM): 1.13
relative viability (HCC-15; first compound 0.03162 µM): 0.857
relative viability (HCC-15; first compound 0.3162 µM): 0.877
relative viability (NCI-H2126; first compound 0.01 µM): 0.768
relative viability (NCI-H2126; first compound 0.03162 µM): 0.698
relative viability (NCI-H2126; first compound 0.3162 µM): 0.769
relative viability (PC-3 [JPC-3]; first compound 0.01 µM): 1.14
relative viability (PC-3 [JPC-3]; first compound 0.03162 µM): 1.06
relative viability (PC-3 [JPC-3]; first compound 0.3162 µM): 0.962
relative viability (NCI-H2228; first compound 0.01 µM): 0.88
relative viability (NCI-H2228; first compound 0.03162 µM): 1.01
relative viability (NCI-H2228; first compound 0.3162 µM): 0.67
relative viability (NCI-H2347; first compound 0.01 µM): 1.06
relative viability (NCI-H2347; first compound 0.03162 µM): 1.09
relative viability (NCI-H2347; first compound 0.3162 µM): 1.08
relative viability (RERF-LC-KJ; first compound 0.01 µM): 0.714
relative viability (RERF-LC-KJ; first compound 0.03162 µM): 0.925
relative viability (RERF-LC-KJ; first compound 0.3162 µM): 0.845
relative viability (NCI-H1734; first compound 0.01 µM): 0.683
relative viability (NCI-H1734; first compound 0.03162 µM): 0.772
relative viability (NCI-H1734; first compound 0.3162 µM): 0.649
relative viability (LXF-289; first compound 0.01 µM): 1.15
relative viability (LXF-289; first compound 0.03162 µM): 1.08
relative viability (LXF-289; first compound 0.3162 µM): 1.05
relative viability (NCI-H1792; first compound 0.01 µM): 1.08
relative viability (NCI-H1792; first compound 0.03162 µM): 0.831
relative viability (NCI-H1792; first compound 0.3162 µM): 0.83
